Article PMC8750630, “Novel Molecular Targets for Hepatocellular Carcinoma” (Cancers, 2021)

System: CD8+ T cells
Assay: pMHC multimer staining of PBMCs for epitope-specific CD8+ T cells
Format: cell-based, human
Conditions: HLA-A*02:01 multimers, PBMCs from 4 HCC patients and 3 healthy donors, average
Experimental: pMHC complexes were generated by combining purified disulfide-stabilized HLA A*0201 monomer (100 μg/mL) with 100 μM peptide for 30 min in PBS at room temperature. Then, pMHC complexes were centrifuged for 5 min at 3300× g to sediment any aggregated MHC molecules. For each 100 μL pMHC, 9.02 μL (0.2 mg/mL stock, SA-PE (BioLegend, 405204), SA-APC (BioLegend, 405207), SA-PE/Cy7 (BioLegend, 405206), SA-PE-CF594 (BD, 562284)), or 18.04 μL (0.1 mg/mL stock, SA-BV421 (BioLegend, 405226), SA-BV650 (BioLegend, 405231) streptavidin conjugate was added and incubated for 30 min on ice. D-biotin (Sigma-Aldrich, St.Louis, MO, USA) was added at a final concentration of 25 μM to block any free binding sites and multimers were stored at −20 °C with 5% glycerol and 0.5% BSA. To stain for T-cell reactivity, PBMCs from 4 HCC patients and 3 healthy donors (2–5 × 10^6) were incubated with a pool of pMHC multimers (3 μL/multimer) and dasatinib (50 nM final, LC laboratories, D-3307) for 15 min at 37 °C. Cells were then stained with antibodies CD3-FITC (1:40, BD, 345763) and CD8-BV480 (1:100, BD, 566121) and LIVE/DEAD Fixable Near-IR (1:1000, Invitrogen, Waltham, MA, USA L10119) for 30 min on ice and washed twice in FACS buffer (PBS + 2% FCS). Gating for CD3^+/CD8^+ T cells was performed on live cells, and binding to pMHCs was assessed by measuring specific fluorescence associated with each individual pMHC. Samples were acquired on a flow cytometer (LSRFortessa, BD, Franklin Lakes, NJ, USA).

First: MLAGNAFTA
Second: MLAGNEFQV
The “percentage of CD8+ T cells reacting with the peptide” value of the first is higher: 0.46% for the first, 0.32% for the second.

Going from ALLALTSAV to LLGPQLVLL, the “percentage of CD8+ T cells reacting with the peptide” value falls from 0.88% to 0.55%.
